Measured values reported in the supplement of paper PMC8741786.
Values after ≈ are worked out from the molar mass of the structure shown.

Tested on: Neisseria subflava/flavescens/perflava
Experiment: minimum inhibitory concentration (ETEST)
Settings: population: general population, antibiotic use in previous 6 months: No
Protocol: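 Oropharyngeal Neisseria isolates from MSM and employees in Belgium were identified to species by MALDI-TOF MS. MICs of azithromycin, ceftriaxone and ciprofloxacin were determined by ETEST on GC agar after 24 h at 36.5 °C and 5-7% CO2, in mg/L. Values beyond the strip range are reported as >256 (azithromycin) or <0.016 (ceftriaxone); isolates that did not grow are NA.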

CO/N=C(\C(=O)N[C@@H]1C(=O)N2C(C(=O)O)=C(CSc3nc(=O)c(O)nn3C)CS[C@H]12)c1csc(N)n1 [ceftriaxone]
Settings | minimum inhibitory concentration [µg/mL]
isolate id (sample isolate): Co000765_4 | 0.023 (≈ 0.0415 µM)
isolate id (sample isolate): Co000766_1 | 0.023 (≈ 0.0415 µM)
isolate id (sample isolate): Co000766_3 | 0.032 (≈ 0.0577 µM)
isolate id (sample isolate): Co000767_1 | 0.023 (≈ 0.0415 µM)
isolate id (sample isolate): Co000767_2 | 0.023 (≈ 0.0415 µM)
isolate id (sample isolate): Co000767_4 | 0.023 (≈ 0.0415 µM)
isolate id (sample isolate): Co000767_5 | 0.064 (≈ 0.115 µM)
isolate id (sample isolate): Co000767_6 | 0.023 (≈ 0.0415 µM)
isolate id (sample isolate): Co000767_7 | 0.047 (≈ 0.0847 µM)
isolate id (sample isolate): Co000768_1 | 0.023 (≈ 0.0415 µM)
isolate id (sample isolate): Co000768_2 | 0.023 (≈ 0.0415 µM)
isolate id (sample isolate): Co000769_1 | 0.047 (≈ 0.0847 µM)
isolate id (sample isolate): Co000769_2 | 0.023 (≈ 0.0415 µM)
isolate id (sample isolate): Co000769_4 | 0.064 (≈ 0.115 µM)
isolate id (sample isolate): Co000770_2 | 0.032 (≈ 0.0577 µM)
isolate id (sample isolate): Co000770_4 | 0.032 (≈ 0.0577 µM)
isolate id (sample isolate): Co000770_6 | 0.032 (≈ 0.0577 µM)
isolate id (sample isolate): Co000771_2 | 0.064 (≈ 0.115 µM)
isolate id (sample isolate): Co000771_3 | 0.016 (≈ 0.0289 µM)
isolate id (sample isolate): Co000771_5 | 0.064 (≈ 0.115 µM)
isolate id (sample isolate): Co000772_1 | 0.064 (≈ 0.115 µM)
isolate id (sample isolate): Co000772_2 | 0.064 (≈ 0.115 µM)
isolate id (sample isolate): Co000772_4 | 0.023 (≈ 0.0415 µM)
isolate id (sample isolate): Co000772_5 | 0.023 (≈ 0.0415 µM)
isolate id (sample isolate): Co000772_6 | 0.016 (≈ 0.0289 µM)
isolate id (sample isolate): Co000773_1 | 0.064 (≈ 0.115 µM)
isolate id (sample isolate): Co000773_2 | 0.064 (≈ 0.115 µM)
isolate id (sample isolate): Co000774_2 | 0.016 (≈ 0.0289 µM)
isolate id (sample isolate): Co000775_1 | 0.032 (≈ 0.0577 µM)
isolate id (sample isolate): Co000775_2 | 0.047 (≈ 0.0847 µM)
isolate id (sample isolate): Co000775_3 | 0.094 (≈ 0.169 µM)
isolate id (sample isolate): Co000776_2 | 0.125 (≈ 0.225 µM)
isolate id (sample isolate): Co000776_3 | 0.125 (≈ 0.225 µM)
isolate id (sample isolate): Co000777_1 | 0.064 (≈ 0.115 µM)
isolate id (sample isolate): Co000777_2 | 0.047 (≈ 0.0847 µM)
isolate id (sample isolate): Co000777_4 | 0.047 (≈ 0.0847 µM)
isolate id (sample isolate): Co000778_1 | 0.094 (≈ 0.169 µM)
isolate id (sample isolate): Co000778_2 | 0.047 (≈ 0.0847 µM)
isolate id (sample isolate): Co000778_3 | 0.094 (≈ 0.169 µM)
isolate id (sample isolate): Co000780_4 | 0.125 (≈ 0.225 µM)
isolate id (sample isolate): Co000781_1 | 0.094 (≈ 0.169 µM)
isolate id (sample isolate): Co000781_3 | 0.064 (≈ 0.115 µM)
isolate id (sample isolate): Co000781_4 | 0.094 (≈ 0.169 µM)
isolate id (sample isolate): Co000782_2 | 0.047 (≈ 0.0847 µM)
isolate id (sample isolate): Co000782_3 | 0.25 (≈ 0.451 µM)
isolate id (sample isolate): Co000782_4 | 0.047 (≈ 0.0847 µM)
isolate id (sample isolate): Co000783_1 | 0.125 (≈ 0.225 µM)
isolate id (sample isolate): Co000783_2 | 0.032 (≈ 0.0577 µM)
isolate id (sample isolate): Co000783_5 | 0.032 (≈ 0.0577 µM)
isolate id (sample isolate): Co000784_1 | 0.023 (≈ 0.0415 µM)
isolate id (sample isolate): Co000784_2 | 0.047 (≈ 0.0847 µM)
isolate id (sample isolate): Co000784_5 | 0.032 (≈ 0.0577 µM)
isolate id (sample isolate): Co000785_1 | 0.047 (≈ 0.0847 µM)
isolate id (sample isolate): Co000785_2 | 0.047 (≈ 0.0847 µM)
isolate id (sample isolate): Co000785_3 | 0.064 (≈ 0.115 µM)
isolate id (sample isolate): Co000785_4 | 0.064 (≈ 0.115 µM)
isolate id (sample isolate): Co000786_1 | 0.032 (≈ 0.0577 µM)
isolate id (sample isolate): Co000786_2 | 0.064 (≈ 0.115 µM)
isolate id (sample isolate): Co000787_1 | 0.032 (≈ 0.0577 µM)
isolate id (sample isolate): Co000787_2 | 0.023 (≈ 0.0415 µM)
isolate id (sample isolate): Co000787_4 | 0.016 (≈ 0.0289 µM)
isolate id (sample isolate): Co000788_2 | 0.047 (≈ 0.0847 µM)
isolate id (sample isolate): Co000788_3 | 0.047 (≈ 0.0847 µM)
isolate id (sample isolate): Co000788_5 | 0.016 (≈ 0.0289 µM)
isolate id (sample isolate): Co000789_1 | 0.032 (≈ 0.0577 µM)
isolate id (sample isolate): Co000790_2 | 0.032 (≈ 0.0577 µM)
isolate id (sample isolate): Co000790_4 | 0.047 (≈ 0.0847 µM)
